Reference: publication PMC7172207 (Bioorganic & Medicinal Chemistry Letters, 2019)

How the values were obtained:
DENV2 [1] = assay: Immunofluorescence assay of DENV2 infectivity; type: cell-based, Dengue virus type 2 (strain 16681); details: for rate of NS4B-positive cells: Vero E6, DENV2-infected, 96 h
DENV2 [2] = assay: Anti-DENV2 activity in human lung epithelial A549 cells; type: cell-based, Dengue virus type 2; details: DENV2 MOI 0.01, 120 h

SMILES: CC1(C)[C@@H](O[C@H]2O[C@H](C(=O)O)[C@@H](O)[C@H](O)[C@H]2O[C@@H]2O[C@H](C(=O)O)[C@@H](O)[C@H](O)[C@H]2O)CC[C@]2(C)[C@H]3C(=O)C=C4[C@@H]5C[C@@](C)(C(=O)O)CC[C@]5(C)CC[C@@]4(C)[C@]3(C)CC[C@@H]12 [Compound 1, Glycyrrhizic acid, reference compound]
- TI (CC50/IC50) (DENV2 [1]; Vero E6 cells): ˃12.3

SMILES: COC(=O)[C@H](CCSC)NC(=O)[C@H]1O[C@@H](O[C@H]2[C@@H](O[C@H]3CC[C@]4(C)[C@H]5C(=O)C=C6[C@@H]7C[C@@](C)(C(=O)N[C@@H](CCSC)C(=O)OC)CC[C@]7(C)CC[C@@]6(C)[C@]5(C)CC[C@H]4C3(C)C)O[C@H](C(=O)N[C@@H](CCSC)C(=O)OC)[C@@H](O)[C@@H]2O)[C@H](O)[C@@H](O)[C@@H]1O [Compound 6]
- TI (CC50/IC50) (DENV2 [1]; Vero E6 cells): ˃22.2

SMILES: CC[C@H](C)[C@H](NC(=O)[C@H]1O[C@@H](O[C@H]2[C@@H](O[C@H]3CC[C@]4(C)[C@H]5C(=O)C=C6[C@@H]7C[C@@](C)(C(=O)N[C@H](C(=O)O)[C@@H](C)CC)CC[C@]7(C)CC[C@@]6(C)[C@]5(C)CC[C@H]4C3(C)C)O[C@H](C(=O)N[C@H](C(=O)O)[C@@H](C)CC)[C@@H](O)[C@@H]2O)[C@H](O)[C@@H](O)[C@@H]1O)C(=O)O [Compound 13]
- rate of NS4B-positive cells (DENV2 [1]; 0.1 μM compound): 37.2%
- rate of NS4B-positive cells (DENV2 [1]; 1 μM compound): 29.4%
- rate of NS4B-positive cells (DENV2 [1]; 10 μM compound): 1.6%
- anti-DENV2 activity in A549 cells (in words) (DENV2 [2]): potent anti-DENV2 activity

SMILES: CC1(C)[C@@H](O[C@H]2O[C@H](C(=O)N[C@@H](Cc3ccccc3)C(=O)O)[C@@H](O)[C@H](O)[C@H]2O[C@@H]2O[C@H](C(=O)N[C@@H](Cc3ccccc3)C(=O)O)[C@@H](O)[C@H](O)[C@H]2O)CC[C@]2(C)[C@H]3C(=O)C=C4[C@@H]5C[C@@](C)(C(=O)N[C@@H](Cc6ccccc6)C(=O)O)CC[C@]5(C)CC[C@@]4(C)[C@]3(C)CC[C@@H]12 [Compound 14]
- anti-DENV2 activity (in words) (DENV2 [1]; Vero E6 cells, CPE test and NS4B-positive cells): dropped the anti-DENV activity
